Assay results published in article PMC6017738, “A Comparative Pharmacokinetic Study by UHPLC-MS/MS of Main Active Compounds after Oral Administration of Zushima-Gancao Extract in Normal and Adjuvant-Induced Arthritis Rats” (Molecules : A Journal of Synthetic Chemistry and Natural …, 2018).

Experiments:
[1] = Stability test of analytes in rat plasma (QC samples); type: physicochemical; conditions: for 24 h Stability RE: autosampler at 4 °C for 24 h; for Short-Term Stability RE: room temperature for 4 h; for Freeze-Thaw Stability RE: three freeze-thaw cycles; for Long-Term Stability RE: −80 °C for a week
Procedure: Stability. To evaluate the stability of each component during analysis, QC samples at low, middle, and high concentrations (three samples for each concentration) were tested under different conditions, including placing QC samples in the autosampler at 4 °C for 24 h, at room temperature for 4 h, at −80 °C for a week, and three freeze-thaw cycles.

[2] = Pharmacokinetics in adjuvant-induced arthritis (AA) rats after oral administration of Zushima-Gancao extract (UHPLC-MS/MS of plasma); conditions: for change of Cmax in AA rats versus normal rats: p < 0.05
Procedure: (§1) The plasma concentration–time curves (C-T curves) of nine analytes are presented in Figure 2, and the corresponding pharmacokinetic parameters, including Cmax, Tmax, AUC (0–t), AUC (0–∞) (AUC: area under concentration-time curve), and t1/2, were obtained using DAS 3.0 pharmacokinetic software (Chinese Pharmacological Association, China). Statistical differences between groups were analyzed using Student’s t-tests, and p-values less than 0.05 were considered statistically significant.
(§2) The chromatography experiment was carried out using a UHPLC system (Thermo Fisher, San Jose, CA, USA), equipped with a Hypersil GOLD C18 column (100 mm × 2.1 mm, 3 μm, Thermo Fisher, San Jose, CA, USA) maintained at 35 °C. The mobile phase consisted of 0.05% formic acid in water (Solvent A) and acetonitrile (Solvent B), and the flow rate was 0.3 mL/min. In order to completely separate all the analytes, the 10 min gradient elution program was used as follows: 0–1 min, 10% B; 1–5 min, 10–90% B; 5–6 min, 90–100% B; 6–8 min, 100% B; 8–9 min, 100–10% B; 9–10 min, 10% B, and the sample injection volume was 3 μL.
(§3) Mass spectrometry detection was operated on TSQ Vantage triple-stage quadrupole mass spectrometer (Thermo Fisher, San Jose, CA, USA) equipped with an electrospray ionization (ESI) source. Quantification of the analytes was performed using selective reaction monitor (SRM) in the negative ionization mode. Spray voltage, sheath gas pressure, auxiliary gas pressure, vaporizer temperature, and capillary temperature were set as 3.0 kV, 45 arb, 25 arb, 450 °C, and 350 °C, respectively.
(§4) Male Sprague–Dawley (SD) rats weighing 180–220 g (SCXK-2012-0002) were supplied by Silaike Lab Animals Ltd. (Shanghai, China). They were all kept in a stable condition (temperature, 22 ± 2 °C; relative humidity, 45–60%) with 12 h light/dark cycles for five days before animal experiments.
(§5) Rats were randomly divided into normal and AA groups with six rats in each group. The arthritic model rats were prepared as our previous research [19]. AA rats were intracutaneously injected with 0.1 mL of FAC in the left hind footpad and normal rats were injected with sterile saline. The FAC solution was prepared as follows: bacillus calmette-guerin (BCG) was bathed in water at 80 °C for 30 min, and then dissolved in a liquid paraffin–lanolin mixture (3:2, v/v). Immediately prior to use, the FAC solution were sterilized for 30 min at 120 °C.
(§6) After model construction, the rats were fed for 20 days. All rats were fasted for 12 h before drug administration, with free access to water. Each rat was administered with Zushima-Gancao extract at a single dose of 10 mL/kg. Blood samples (approximately 0.3 mL) were collected into heparinized micro-centrifuge tubes from the postorbital venous plexus veins of rats at specific time points of 0, 0.08, 0.17, 0.33, 0.5, 1, 2, 3, 5, 8, 12, 24, and 36 h. All blood samples were centrifuged immediately at 5000 rpm for 6 min, and the plasma were obtained and stored at −80 °C until analysis.
(§7) A liquid–liquid extraction (LLE) method was applied to extract the compounds from thawed rat plasma samples, aliquots of 100 μL plasma sample were transferred into a 1.5 mL Eppendorf tube, and 10 μL of methanol, 10 μL of hydrochloric acid (2 mol/L), and 10 μL of IS (130 ng/mL) were added separately. The mixture was vortexed for 30 s, and 500 μL of ethyl acetate was added and mixed by vortexing for 10 min. The supernatant (about 450 μL) was transferred into another tube after centrifugation at 16,000 rpm for 10 min and then evaporated to dryness at 45 °C, 15 kPa in a Thermo SPD1010-230 SpeedVac Concentrator (Thermo Fisher, San Jose, CA, USA). The residue was dissolved in 100 μL of initial mobile phase by vortexing for 5 min, and a further centrifugation at 17,000 rpm for 10 min was applied after the residue was re-dissolved. The supernatant was injected into the UHPLC-MS/MS system for analysis.

[3] = Pharmacokinetics in normal rats after oral administration of Zushima-Gancao extract (UHPLC-MS/MS of plasma); type: in vivo; conditions: male, Sprague-Dawley, rat, oral Zushima-Gancao extract 10 mL/kg single dose, n = 6, mean ± SD
Procedure: as §1, §2, §3, §4, §5, §6, §7

[4] = AA rats versus normal rats, oral Zushima-Gancao extract
[5] = male, Sprague-Dawley, rat, plasma, po, 10 mL/kg
[6] = male, Sprague-Dawley, rat, in vivo, po, 10 mL/kg

Structure (SMILES)	24 h Stability RE ([1]; high concentration)	Short-Term Stability RE ([1]; high concentration)	Freeze-Thaw Stability RE ([1]; high concentration)	Long-Term Stability RE ([1]; high concentration)	24 h Stability RE ([1]; low concentration)	Short-Term Stability RE ([1]; low concentration)	Freeze-Thaw Stability RE ([1]; low concentration)	Long-Term Stability RE ([1]; low concentration)	24 h Stability RE ([1]; middle concentration)	Short-Term Stability RE ([1]; middle concentration)	Freeze-Thaw Stability RE ([1]; middle concentration)	Long-Term Stability RE ([1]; middle concentration)	AUC(0-inf) [2, 5]	AUC(0-t) [2, 5]	Cmax [2, 5]	Tmax [2, 5]	AUC(0-inf) [3]	AUC(0-t) [3]	Cmax [3]	half-life [3]	other results
CC1(C)[C@@H](O)CC[C@]2(C)[C@H]3C(=O)C=C4[C@@H]5C[C@@](C)(C(=O)O)CC[C@]5(C)CC[C@@]4(C)[C@]3(C)CC[C@@H]12 [GA, glycyrrhetinic acid]	14.35%	13.05%		9.57%	13.49%	2.08%		0.04%	14.1%	−3.38%		5.44%	4330 ± 1860 ng·h/mL	4260 ± 1860 ng·h/mL	418 ± 296 ng/mL	9.33 ± 2.07 h	1960 ± 1260 ng·h/mL	1940 ± 1240 ng·h/mL	167 ± 93 ng/mL	3.88 ± 1.29 h	increase of AUC (0–∞) in model rats compared to normal rats [2, 4]: 2.2 fold; increase of AUC(0–t) in model rats compared to normal rats [2, 4]: 2.2 fold; half-life [2, 5]: 4.94 ± 2.43 h; Tmax [3]: 8.67 ± 1.63 h
O=c1ccc2ccc(O)cc2o1 [HDC, 7-hydroxycoumarin]	1.39%	3.09%	2.64%	−0.05%	−1.43%	−13.86%	−13.48%	−10.07%	−0.85%	−5.72%	−1.27%	−1.8%	131 ± 29.1 ng·h/mL	127 ± 26.8 ng·h/mL	179 ± 98 ng/mL	0.22 ± 0.08 h	148 ± 24.9 ng·h/mL	142 ± 24.4 ng·h/mL	193 ± 29.3 ng/mL	2.86 ± 1.94 h	half-life [2, 5]: 2.52 ± 1.82 h; Tmax [3]: 0.22 ± 0.08 h
O=C(/C=C/c1ccc(O[C@@H]2O[C@H](CO)[C@@H](O)[C@H](O)[C@H]2O)cc1)c1ccc(O)cc1O [ILQ, isoliquiritin]	6.64%	3.29%	4.51%	2.66%	4.99%	9.08%	−2.51%	7.49%	5.33%	12.35%	−6.3%	5.37%					6.74 ± 0.6 ng·h/mL	6.72 ± 0.6 ng·h/mL	8.92 ± 1.68 ng/mL	0.52 ± 0.2 h	decrease of AUC (0–∞) compared with the normal group [2, 4]: 39.02%; Tmax ([2]; AA rats, oral Zushima-Gancao extract 10 mL/kg single dose, plasma, n = 6, mean ± SD): 0.36 ± 0.13 h; change of Tmax in AA rats versus normal rats ([2]; AA versus normal rats): obvious increase; change of Cmax in AA rats versus normal rats ([2]; AA versus normal rats): decreased remarkably; AUC(0-inf) [2, 6]: 4.11 ± 1.12 ng·h/mL; AUC(0-t) [2, 6]: 4.04 ± 1.2 ng·h/mL; Cmax [2, 6]: 4.63 ± 3.64 ng/mL; half-life [2, 6]: 0.94 ± 0.83 h; Tmax [3]: 0.17 ± 0.09 h
O=C1C[C@@H](c2ccc(O)cc2)Oc2cc(O)ccc21 [LG, liquiritigenin]	8.56%	1.5%	6.75%	3.89%	6.72%	9.76%	7.22%	2.87%	8.15%	11.16%	7.96%	0.58%	194 ± 84.4 ng·h/mL	193 ± 83.2 ng·h/mL	29.7 ± 10.7 ng/mL	4.7 ± 2.52 h	170 ± 62.5 ng·h/mL	169 ± 62.4 ng·h/mL	23.9 ± 3.72 ng/mL	1.66 ± 0.44 h	half-life [2, 5]: 2.3 ± 0.95 h; Tmax [3]: 3.86 ± 1.98 h
O=C1C[C@@H](c2ccc(O[C@@H]3O[C@H](CO)[C@@H](O)[C@H](O)[C@H]3O)cc2)Oc2cc(O)ccc21 [LQ, liquiritin]	4.89%	5.23%	7.92%	7.57%	2.03%	−9.95%	13.76%	8.14%	3.31%	0.14%	−5.95%	−0.13%	34.4 ± 8.89 ng·h/mL	33.1 ± 6.8 ng·h/mL	30.1 ± 13.8 ng/mL	0.21 ± 0.1 h	45.5 ± 3.9 ng·h/mL	45.5 ± 3.89 ng·h/mL	58.8 ± 12.5 ng/mL	0.47 ± 0.15 h	decrease of AUC (0–∞) compared with the normal group [2, 4]: 24.57%; change of Cmax in AA rats versus normal rats ([2]; AA versus normal rats): decreased remarkably; half-life [2, 5]: 0.75 ± 0.65 h

More lines, main results first:

24 h Stability RE ([1]; high concentration)	Short-Term Stability RE ([1]; high concentration)	Freeze-Thaw Stability RE ([1]; high concentration)	Long-Term Stability RE ([1]; high concentration)	24 h Stability RE ([1]; low concentration)	Short-Term Stability RE ([1]; low concentration)	Freeze-Thaw Stability RE ([1]; low concentration)	Long-Term Stability RE ([1]; low concentration)	24 h Stability RE ([1]; middle concentration)	Short-Term Stability RE ([1]; middle concentration)	Freeze-Thaw Stability RE ([1]; middle concentration)	Long-Term Stability RE ([1]; middle concentration)	AUC(0-inf) [2, 5]	AUC(0-t) [2, 5]	Cmax [2, 5]	Tmax [2, 5]	AUC(0-inf) [3]	AUC(0-t) [3]	Cmax [3]	half-life [3]	Structure (SMILES)	other results
−11.8%	−12.42%	−14.04%	−12.23%	−13.85%	−7.83%	−6.29%	−12.07%	−13.73%	−12.68%	−8.25%	−15%	167 ± 49 ng·h/mL	165 ± 49.4 ng·h/mL	201 ± 108 ng/mL	0.2 ± 0.07 h	256 ± 54.8 ng·h/mL	246 ± 53.9 ng·h/mL	214 ± 32.5 ng/mL	3.4 ± 0.96 h	O=c1ccc2ccc(O)c(O)c2o1 [DPH, daphnetin]	decrease of AUC (0–∞) compared with the normal group [2, 4]: 34.56%; change of t1/2 in AA rats versus normal rats ([2]; AA versus normal rats): remarkable decrease; half-life [2, 5]: 2.06 ± 0.26 h; Tmax [3]: 0.24 ± 0.11 h
−6.11%	−5.38%	−9.71%	−13.85%	−11.79%	−13.63%	0.05%	−12.79%	−11.33%	−13.99%	−14.22%	−14.41%	154 ± 79.8 ng·h/mL	86.2 ± 33.8 ng·h/mL	7.06 ± 3.82 ng/mL	0.42 ± 0.31 h	163 ± 78.7 ng·h/mL	131 ± 58.1 ng·h/mL	14.4 ± 3.31 ng/mL	14.5 ± 2.91 h	COc1cc2cc(Oc3ccc4ccc(=O)oc4c3)c(=O)oc2cc1O [DR, daphnoretin]	change of Cmax in AA rats versus normal rats ([2]; AA versus normal rats): decreased remarkably; half-life [2, 5]: 28.3 ± 9.39 h; Tmax [3]: 0.39 ± 0.31 h
13.22%	13.85%	14.36%	9.2%	11.79%	10.26%	10.89%	11.48%	11.8%	10.68%	14.3%	9.96%	187 ± 64.6 ng·h/mL	184 ± 61.7 ng·h/mL	24.9 ± 7.81 ng/mL	4.83 ± 2.64 h	267 ± 49.7 ng·h/mL	248 ± 47.8 ng·h/mL	29 ± 10.5 ng/mL	8.72 ± 4.81 h	CC1(C)[C@@H](O[C@H]2O[C@H](C(=O)O)[C@@H](O)[C@H](O)[C@H]2O[C@@H]2O[C@H](C(=O)O)[C@@H](O)[C@H](O)[C@H]2O)CC[C@]2(C)[C@H]3C(=O)C=C4[C@@H]5C[C@@](C)(C(=O)O)CC[C@]5(C)CC[C@@]4(C)[C@]3(C)CC[C@@H]12 [GL, glycyrrhizin]	decrease of AUC (0–∞) compared with the normal group [2, 4]: 29.89%; change of Tmax in AA rats versus normal rats ([2]; AA versus normal rats): obvious increase; half-life [2, 5]: 4.88 ± 3.04 h; Tmax [3]: 0.58 ± 0.35 h
10.13%	12.09%	7.59%	13.23%	8.75%	−3.23%	2.53%	−11.29%	10.08%	11.76%	12.3%	12.68%	8.48 ± 3.04 ng·h/mL	8.25 ± 2.9 ng·h/mL	1.92 ± 0.55 ng/mL	3.7 ± 2.1 h	12.4 ± 6.97 ng·h/mL	8.89 ± 3.12 ng·h/mL	2.77 ± 0.83 ng/mL	1.08 ± 0.67 h	O=C(/C=C/c1ccc(O)cc1)c1ccc(O)cc1O [ILG, isoliquiritigenin]	change of Tmax in AA rats versus normal rats ([2]; AA versus normal rats): obvious increase; half-life [2, 5]: 1.39 ± 0.65 h; Tmax [3]: 0.14 ± 0.05 h
